In patent US20140303166A1, “COSMETIC METHOD FOR CHANGING THE APPEARANCE OF EYES” (priority 2013, published 2014):
Structures can show the parent of a compound that is named as a salt.

System: eyelids
Test: topical application to the eyelids (eyelid retraction / eye-widening)
Format: in vivo
Conditions: topically applied, alone or in combination
Excerpt: Topical treatments to which the current application is directed include ointments, creams, and solutions that contain one or more of the compounds travoprost, dorzolamide hydrochloride, and timolol maleate, alone or in combination, and/or one or more chemically-related compounds and may also include pure forms of various types of prostaglandin, synthetic prostaglandin, and synthetic prostaglandin analogues.

CCNC(=O)CCCC=CCC1C(O)CC(O)C1C=CC(O)CCc1ccccc1 (stereo not drawn) [bimatoprost, 7-[3,5-dihydroxy-2-(3-hydroxy-5-phenyl-pent-1-enyl)-cyclopentyl]-N-ethyl-hept-5-enamide]
eyelid retraction after topical application to the eyelids: cause the eyelids to retract more completely

CCN[C@H]1C[C@H](C)S(=O)(=O)c2sc(S(N)(=O)=O)cc21 [dorzolamide hydrochloride, (4S,6S)-2-ethylamino-4-methyl-5,5-dioxo-5λ^6,7dithiabicyclo[4.3.0] nona-8,10-diene-8-sulfonamide]
eyelid retraction after topical application to the eyelids: cause the eyelids to retract more completely

CC(C)OC(=O)CCC/C=C\C[C@@H]1[C@@H](CC[C@@H](O)CCc2ccccc2)[C@H](O)C[C@@H]1O [latanoprost, isopropyl (Z)-7-[(1R,2R,3R,5S)-3,5-dihydroxy-2-[(3R)3-hydroxy-5-phenylpentyl]-cyclopentyl] hept-5-enoate]
eyelid retraction after topical application to the eyelids: cause the eyelids to retract more completely

CC(C)(C)NC[C@H](O)COc1nsnc1N1CCOCC1 [timolol maleate, (S)-1-(tert-butylamino)-3-[(4-morpholin-4-yl-1,2,5-thiadiazol-3-yl)oxy]propan-2-ol]
eyelid retraction after topical application to the eyelids: cause the eyelids to retract more completely

CC(C)OC(=O)CCCC=CCC1C(O)CC(O)C1C=CC(O)COc1cccc(C(F)(F)F)c1 (stereo not drawn) [travoprost, propan-2-yl 7-[3,5-dihydroxy-2-[3-hydroxy-4-[3-(trifluoromethyl)phenoxy]-but-1-enyl]-cyclopentyl]hept-5-enoate]
eyelid retraction after topical application to the eyelids: cause the eyelids to retract more completely

CCCCCCCC(=O)CC[C@@H]1[C@@H](C/C=C\CCCC(=O)OC(C)C)[C@@H](O)C[C@H]1O [unoprostone, isopropyl (Z)-7-[(1R,2R,3R,5 S)-3,5-dihydroxy-2-(3-oxodecyl)cyclopentyl] hept-5-enoic acid]
eyelid retraction after topical application to the eyelids: cause the eyelids to retract more completely
